Assay results taken from ChEMBL document CHEMBL1125916 (1991).

Test: In vitro cytotoxicity in BALB/c3T3 mouse embryo fibroblasts.
Conditions: BALB/c3T3, read-out: LC50

O=P1(N(CCCl)CCCl)NCCCO1 (stereo unspecified) [CYCLOPHOSPHAMIDE ANHYDROUS]
CC50: 37.6 µM
